Assays:
[1] = test system: male mice; test: Scanning electron microscopy (SEM) of sperm morphology; format: in vivo; conditions: protocol 2 at 63 days, n = 3
Excerpt: Fig. 4. CDD-2807 treatment induces a reversible contraceptive effect. […] Fertility was restored to levels equal to those of controls after halting CDD-2807 treatment for 3 weeks in protocol 1; in protocol 2, fertility was restored an average of 53.5 ± 5.1 days after completion of CDD-2807 treatment compared to the controls (3.5 ± 0.2 days). (C) There are no observed morphological differences in testes from control and CDD-2807 treatment in mice from protocol 2 at 63 days; testis size of CDD-2807–treated mice in protocol 2 (87.13 ± 5.87 mg) was not statistically changed versus control males (111.10 ± 6.50 mg). […] (H) For SEM quantification, a minimum of 100 sperm per group were counted and determined to be either normal or abnormal (having head or tail defects). Counts were totaled and then turned into a percentage of normal versus abnormal sperm per group. By SEM analysis, 94.7 ± 2.7% of the sperm in the CDD-2807–treated mice (n = 3) in protocol 2 had morphologic defects at 63 days, including head and tail defects as shown, compared to only 10.9 ± 2.7% abnormal sperm for the controls (n = 3). Scale bars: 0.5 cm (C), […] (H). **P < 0.01, ***P < 0.001, ****P < 0.0001.

[2] = test system: male mice; test: Histological analysis of testis and epididymis; format: in vivo
Excerpt: fig. S24. Histological analysis of testis and epididymis segments (caput & corpus) from control and CDD-2807-treated male mice from protocol 1. Bouin’s fixed, 4 µm-cross sections of the testis (A) and horizontal sections of the epididymis (B) were stained with PAS-hematoxylin.
All 12 stages of spermatogenesis are represented in both control and CDD-2807-treated mice and show normal tissue morphology and acrosome development. Epididymis from the control and CDD-2807-treated mice were similar histologically. Scale bars are 60 µm.
(1 picture or pasted object on this page, not shown here) […]
fig. S25. Histological analysis of testis and epididymis segments (caput & corpus) from control and CDD-2807-treated male mice from protocol 2. Bouin’s fixed, 4 µm-cross sections of the testis (A) and longitudinal sections of the epididymis (B) were stained with PAS-hematoxylin. All 12 stages of spermatogenesis are represented in both control and CDD-2807-treated mice, although it was difficult to find all stages in the CDD-2807-treated mice. Epididymis from the control and CDD-2807-treated mice were very different histologically, control mice had normal sperm cells, while CDD-2807 mice had occasional round spermatids present in the epididymis. Scale bars are 60 µm.

[3] = target: STK33 (Homo sapiens, UniProt Q9BYT3); test: NanoBRET K192 assay (Promega); format: cell-based; design: host or cells: HEK293 (HEK293T cultured); conditions: HEK293 cells
Procedure: (§1) NanoBRET Target Engagement K192 assay. HEK293 cells (ATCC) were cultured in DMEM (Gibco) + 10% FBS (Seradigm) and incubated in a humidified 37°C/5% CO2 incubator. The NanoBRET Target Engagement K192 Kinase Selectivity System (Promega) contains 192 unique transfection-ready NanoLuc/Kinase fusions, pre-diluted in either transfection carrier DNA or relevant cyclin DNA. These NanoLuc/Kinase fusion constructs were transfected into HEK293 cells using Fugene HD (Promega) according to the manufacturer’s protocol. Briefly, 10 µL of a 20 µg/mL DNA solution was added to white, TC-treated 96-well assay plates (Corning), followed by 30 µL of a diluted Fugene HD solution (20 µL Fugene/1 mL Opti-MEM). After transfection complex formation, HEK293 cells were resuspended at 3.3 × 105 c/mL in Opti-MEM + 1% FBS and added at a volume of 60 µL per well, to result in approximately 20000 cells/well. Cells were incubated in a humidified 37°C/5% CO2 incubator for 20 hours. Tracer K-10 (Promega) was prepared at a 100× concentration in DMSO (Sigma) and diluted to a working concentration of 10× in tracer dilution buffer (12.5 mM HEPES, 31.25% PEG400, pH 7.5) (Promega). Test compounds were prepared as concentrated stock solutions in DMSO and diluted in Opti-MEM to prepare 10× working stocks. Cells were equilibrated with test compounds and Tracer K-10 for 2 hours prior to BRET measurements. For target engagement analysis, Tracer K-10 was added to cells at one of 4 […]
(§2) manufacturer’s protocol. To measure BRET, NanoBRET NanoGlo Substrate and Extracellular NanoLuc Inhibitor (Promega) were added according to the manufacturer’s protocol, and filtered luminescence was measured on a GloMax Discover luminometer equipped with 450 nm BP filter (donor) and 600 nm LP filter (acceptor), using 0.5 s integration time. Milli-BRET units are calculated by multiplying the raw BRET units by 1000.
(§3) For Fractional Occupancy determination, the following equation was used:
(§4) % Occupancy = [1-(X-Z)/(Y-Z)]×100
(§5) Where X = BRET in the presence of the test compound and Tracer K10, Y = BRET in the presence of Tracer K10 only, and Z = Full occupancy, or BRET in the absence of the test compound and […]
(§6) Tracer K10. […]

[4] = target: CLK2 (Homo sapiens, UniProt P49760); test: NanoBRET K192 assay (Promega); format: cell-based; design: host or cells: HEK293 (HEK293T cultured); conditions: HEK293 cells
Procedure: as §1, §2, §3, §4, §5, §6

[5] = target: RET (Homo sapiens, UniProt P07949); test: NanoBRET K192 assay (Promega); format: cell-based; design: host or cells: HEK293 (HEK293T cultured); conditions: HEK293 cells
Procedure: as §1, §2, §3, §4, §5, §6

[6] = target: CLK1 (Homo sapiens, UniProt P49759); test: NanoBRET K192 assay (Promega); format: cell-based; design: host or cells: HEK293 (HEK293T cultured); conditions: HEK293 cells
Procedure: as §1, §2, §3, §4, §5, §6

[7] = target: CLK4 (Homo sapiens, UniProt Q9HAZ1); test: NanoBRET K192 assay (Promega); format: cell-based; design: host or cells: HEK293 (HEK293T cultured); conditions: HEK293 cells
Procedure: as §1, §2, §3, §4, §5, §6

Sequence of CLK4 (Q9HAZ1 whole entry): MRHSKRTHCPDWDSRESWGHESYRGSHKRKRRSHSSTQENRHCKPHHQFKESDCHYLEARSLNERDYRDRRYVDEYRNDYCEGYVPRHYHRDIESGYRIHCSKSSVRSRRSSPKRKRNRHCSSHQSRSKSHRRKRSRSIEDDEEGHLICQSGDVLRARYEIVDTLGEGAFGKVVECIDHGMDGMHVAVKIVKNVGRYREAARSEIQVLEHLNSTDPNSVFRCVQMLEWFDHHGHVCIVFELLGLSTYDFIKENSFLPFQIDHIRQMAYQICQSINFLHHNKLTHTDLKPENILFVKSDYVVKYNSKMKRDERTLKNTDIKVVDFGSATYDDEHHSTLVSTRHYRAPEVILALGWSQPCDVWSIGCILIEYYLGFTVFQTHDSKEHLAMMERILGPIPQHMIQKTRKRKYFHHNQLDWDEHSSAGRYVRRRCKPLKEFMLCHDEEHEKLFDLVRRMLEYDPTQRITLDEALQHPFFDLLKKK
Sequence of CLK1 (P49759 whole entry): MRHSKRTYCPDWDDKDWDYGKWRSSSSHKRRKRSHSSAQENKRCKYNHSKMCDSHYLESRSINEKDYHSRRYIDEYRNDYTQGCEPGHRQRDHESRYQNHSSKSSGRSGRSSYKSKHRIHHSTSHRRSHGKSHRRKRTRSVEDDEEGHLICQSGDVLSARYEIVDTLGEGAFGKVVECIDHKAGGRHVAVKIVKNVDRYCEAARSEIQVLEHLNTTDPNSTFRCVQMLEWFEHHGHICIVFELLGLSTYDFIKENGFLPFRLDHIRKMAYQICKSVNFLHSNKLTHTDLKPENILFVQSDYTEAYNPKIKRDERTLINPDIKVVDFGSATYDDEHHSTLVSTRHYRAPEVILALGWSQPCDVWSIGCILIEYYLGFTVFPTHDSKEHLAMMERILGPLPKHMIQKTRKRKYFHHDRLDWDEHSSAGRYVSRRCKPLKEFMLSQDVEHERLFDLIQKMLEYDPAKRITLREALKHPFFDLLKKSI
Sequence of CLK2 (P49760 whole entry): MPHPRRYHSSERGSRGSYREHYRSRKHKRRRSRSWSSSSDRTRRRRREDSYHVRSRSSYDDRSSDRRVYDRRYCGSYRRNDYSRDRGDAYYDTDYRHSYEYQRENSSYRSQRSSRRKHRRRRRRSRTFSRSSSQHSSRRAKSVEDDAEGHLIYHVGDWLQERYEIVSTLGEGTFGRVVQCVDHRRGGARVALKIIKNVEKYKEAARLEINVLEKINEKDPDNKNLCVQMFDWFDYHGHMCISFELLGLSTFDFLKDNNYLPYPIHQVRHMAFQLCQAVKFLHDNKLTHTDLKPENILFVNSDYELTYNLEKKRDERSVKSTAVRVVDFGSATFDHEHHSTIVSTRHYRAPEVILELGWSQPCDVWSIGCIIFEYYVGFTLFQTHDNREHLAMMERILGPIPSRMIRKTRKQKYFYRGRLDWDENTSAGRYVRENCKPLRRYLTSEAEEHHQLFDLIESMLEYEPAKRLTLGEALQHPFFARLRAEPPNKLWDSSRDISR
Sequence of RET (P07949 29-1114): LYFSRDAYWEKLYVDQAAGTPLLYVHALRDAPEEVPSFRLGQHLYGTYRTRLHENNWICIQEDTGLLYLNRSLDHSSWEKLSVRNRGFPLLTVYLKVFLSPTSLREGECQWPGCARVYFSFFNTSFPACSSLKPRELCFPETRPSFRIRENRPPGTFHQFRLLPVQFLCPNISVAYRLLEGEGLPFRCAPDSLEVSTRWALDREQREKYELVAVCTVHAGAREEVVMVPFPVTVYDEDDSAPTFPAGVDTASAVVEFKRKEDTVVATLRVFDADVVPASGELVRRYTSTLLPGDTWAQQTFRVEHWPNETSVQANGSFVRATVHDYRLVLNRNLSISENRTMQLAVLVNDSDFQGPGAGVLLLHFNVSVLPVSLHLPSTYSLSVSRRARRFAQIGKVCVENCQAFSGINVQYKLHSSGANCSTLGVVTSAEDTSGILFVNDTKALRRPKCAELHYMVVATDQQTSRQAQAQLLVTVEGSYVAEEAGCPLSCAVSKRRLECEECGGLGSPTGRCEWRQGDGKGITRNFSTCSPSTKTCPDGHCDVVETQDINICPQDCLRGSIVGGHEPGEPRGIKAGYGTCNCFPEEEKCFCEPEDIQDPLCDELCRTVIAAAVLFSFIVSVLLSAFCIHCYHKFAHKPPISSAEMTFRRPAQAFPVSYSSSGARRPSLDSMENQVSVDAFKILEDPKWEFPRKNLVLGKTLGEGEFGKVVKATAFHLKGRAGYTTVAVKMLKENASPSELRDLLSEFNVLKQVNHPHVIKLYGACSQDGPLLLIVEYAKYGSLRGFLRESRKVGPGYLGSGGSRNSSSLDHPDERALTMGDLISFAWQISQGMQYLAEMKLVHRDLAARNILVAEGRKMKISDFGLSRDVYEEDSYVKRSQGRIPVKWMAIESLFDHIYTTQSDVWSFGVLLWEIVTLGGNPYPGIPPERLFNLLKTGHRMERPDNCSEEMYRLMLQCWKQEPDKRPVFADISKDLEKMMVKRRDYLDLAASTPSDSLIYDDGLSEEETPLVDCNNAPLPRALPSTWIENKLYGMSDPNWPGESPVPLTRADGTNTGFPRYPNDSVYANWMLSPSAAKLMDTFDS
Sequence of STK33 (Q9BYT3 whole entry, the tested form may be a part): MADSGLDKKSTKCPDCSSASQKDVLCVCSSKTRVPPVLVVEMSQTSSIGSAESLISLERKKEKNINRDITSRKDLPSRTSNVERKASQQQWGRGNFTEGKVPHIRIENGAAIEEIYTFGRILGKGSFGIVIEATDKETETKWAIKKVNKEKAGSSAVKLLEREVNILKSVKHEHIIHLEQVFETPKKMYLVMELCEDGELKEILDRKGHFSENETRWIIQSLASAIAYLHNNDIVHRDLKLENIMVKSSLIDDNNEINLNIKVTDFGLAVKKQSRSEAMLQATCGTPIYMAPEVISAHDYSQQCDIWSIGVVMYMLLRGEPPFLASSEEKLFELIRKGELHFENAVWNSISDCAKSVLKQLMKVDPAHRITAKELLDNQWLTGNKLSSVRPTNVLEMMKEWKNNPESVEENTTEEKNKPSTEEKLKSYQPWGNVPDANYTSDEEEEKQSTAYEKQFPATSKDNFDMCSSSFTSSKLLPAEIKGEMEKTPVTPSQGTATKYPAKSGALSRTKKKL

In the case of `O=C(c1ccc2[nH]nc(C#Cc3ccccc3-c3ccccc3)c2c1)N1CC2(CCCNC2)C1` [CDD-2807], the “sperm with morphologic defects (abnormal sperm) by SEM” value [1] is reported as 94.7 ± 2.7%, the “histology of testes and epididymis” value ([2]; protocol 1) is reported as “no detectable defects” and the histology of epididymis ([2]; protocol 2) is reported as “round spermatids in the epididymis”. The receptor occupancy at 1 µM [3] was 95.9%, the receptor occupancy at 1 µM ([4]; HEK293, at 1 µM) was 89.7% and the “NanoBRET K192 assay % Occupancy CLK2” value ([4]; at 1 µM) was > 80%. The receptor occupancy at 1 µM ([5]; HEK293, at 1 µM) was 85.8 ± 0.2%, the “NanoBRET K192 assay % Occupancy RET” value ([5]; at 1 µM) was > 80% and the receptor occupancy at 1 µM ([6]; HEK293, at 1 µM) was 83.5 ± 0.1%. For the same compound, the “NanoBRET K192 assay % Occupancy CLK1” value ([6]; at 1 µM) was > 80%, the receptor occupancy at 1 µM ([7]; HEK293, at 1 µM) was 94.7 ± 0.1% and the “NanoBRET K192 assay % Occupancy CLK4” value ([7]; at 1 µM) was > 80%.
